Test system: Aβ42
Test: In vitro cell screening assay in H4 cells expressing human APP751: Aβ42 by sandwich ELISA
Type: cell-based
Settings: compounds 0.003-10 μM, incubated overnight (16-18 h), sandwich ELISA of supernatant
In short: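 H4 neuroglioma cells stably expressing wild-type human APP751, switched to Pro293 medium and treated with compounds (0.003-10 μM, 0.33% DMSO) for 16-18 h at 37 °C. Supernatant Aβ42 quantified by sandwich ELISA (C-terminal capture, 4G8-HRP detection, A450); EC50 by sigmoidal fit normalized to DMSO and DAPT controls.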

| SMILES | EC50 | EC50 (Homo sapiens) |
| --- | --- | --- |
| COc1nc(C2=NOCC(c3cn(C4CC4)c4cccc(F)c34)N2)ccc1-n1cnc(C)c1 (single isomer, unassigned; (-)) [Example 222B, (−)-5-(1-cyclopropyl-4-fluoro-1H-indol-3-yl)-3-(6-methoxy-5-(4-methyl-1H-imidazol-1-yl)pyridin-2-yl)-5,6-dihydro-4H-1,2,4-oxadiazine] | 68.6 nM |  |
| COc1nc(C2=NOCC(c3ccc(C)c(Cl)c3)N2)ccc1-n1cnc(C)c1 (single isomer, unassigned; (-)) [Example 218A, (−)-5-(3-chloro-4-methylphenyl)-3-(6-methoxy-5-(4-methyl-1H-imidazol-1-yl)pyridin-2-yl)-5,6-dihydro-4H-1,2,4-oxadiazine] | 1010 nM |  |
| COc1nc(C2=NOCC(c3ccc(F)c(F)c3)N2)ccc1-n1cnc(C)c1 (single isomer, unassigned; (+)) [Example 75B, (+)-5-(3,4-difluorophenyl)-3-(6-methoxy-5-(4-methyl-1H-imidazol-1-yl)pyridin-2-yl)-5,6-dihydro-4H-1,2,4-oxadiazine] | 92.2 nM |  |
| COc1nc(C2=NOCC(c3coc4ccccc34)N2)ccc1-n1cnc(C)c1 (single isomer, unassigned) [Example 38A, 5-(benzofuran-3-yl)-3-(6-methoxy-5-(4-methyl-1H-imidazol-1-yl)pyridin-2-yl)-5,6-dihydro-4H-1,2,4-oxadiazine] | > 3000 nM |  |
| COc1nc(C2=NOCC(c3ccc(F)c(F)c3)N2)ccc1-n1cnc(C)c1 (single isomer, unassigned; (-)) [Example 75A, (−)-5-(3,4-difluorophenyl)-3-(6-methoxy-5-(4-methyl-1H-imidazol-1-yl)pyridin-2-yl)-5,6-dihydro-4H-1,2,4-oxadiazine] | > 3000 nM |  |
| COc1nc(C2=NOCC(c3ccc(C4CC4)c(Cl)c3)N2)ccc1-n1cnc(C)c1 (single isomer, unassigned; (+)) [Example 243B, (+)-5-(3-chloro-4-cyclopropylphenyl)-3-(6-methoxy-5-(4-methyl-1H-imidazol-1-yl)pyridin-2-yl)-5,6-dihydro-4H-1,2,4-oxadiazine] | 13.2 nM |  |
| COc1nc(C2=NOCC(c3cc4cc(C(F)(F)F)ccc4o3)N2)ccc1-n1cnc(C)c1 (single isomer, unassigned; (+)) [Example 259B, (+)-3-(6-methoxy-5-(4-methyl-1H-imidazol-1-yl)pyridin-2-yl)-5-(5-(trifluoromethyl)benzofuran-2-yl)-5,6-dihydro-4H-1,2,4-oxadiazine] | 9 nM |  |
| COc1nc(C2=NOCC(c3cc4ccccc4n3C)N2)ccc1-n1cnc(C)c1 (single isomer, unassigned; (+)) [Example 205B, (+)-3-(6-methoxy-5-(4-methyl-1H-imidazol-1-yl)pyridin-2-yl)-5-(1-methyl-1H-indol-2-yl)-5,6-dihydro-4H-1,2,4-oxadiazine] | 27 nM |  |
| COc1nc(C2=NOCC(c3cn(C)c4cccc(OC)c34)N2)ccc1-n1cnc(C)c1 (single isomer, unassigned; (+)) [Example 252B, (+)-5-(4-methoxy-1-methyl-1H-indol-3-yl)-3-(6-methoxy-5-(4-methyl-1H-imidazol-1-yl)pyridin-2-yl)-5,6-dihydro-4H-1,2,4-oxadiazine] | 36.3 nM |  |
| COc1nc(C2=NOCC(c3cn(C)c4cc(F)c(C)cc34)N2)ccc1-n1cnc(C)c1 (single isomer, unassigned; (+)) [Example 257B, (+)-5-(6-fluoro-1,5-dimethyl-1H-indol-3-yl)-3-(6-methoxy-5-(4-methyl-1H-imidazol-1-yl)pyridin-2-yl)-5,6-dihydro-4H-1,2,4-oxadiazine] | 4.9 nM |  |
| COc1nc(C2=NOCC(c3cc4ccccc4n3C)N2)ccc1-n1cnc(C)c1 (single isomer, unassigned; (-)) [Example 205A, (−)-3-(6-methoxy-5-(4-methyl-1H-imidazol-1-yl)pyridin-2-yl)-5-(1-methyl-1H-indol-2-yl)-5,6-dihydro-4H-1,2,4-oxadiazine] | 1730 nM |  |
| COc1cc(Cl)c2c(C3CON=C(c4ccc(-n5cnc(C)c5)c(OC)n4)N3)cn(C)c2c1 (single isomer, unassigned; (-)) [Example 261B, (−)-5-(4-chloro-6-methoxy-1-methyl-1H-indol-3-yl)-3-(6-methoxy-5-(4-methyl-1H-imidazol-1-yl)pyridin-2-yl)-5,6-dihydro-4H-1,2,4-oxadiazine] | 21.2 nM |  |
| COc1nc(C2=NOCC(C3CC3)N2)ccc1-n1cnc(C)c1 (single isomer, unassigned) [Example 134B, 5-cyclopropyl-3-(6-methoxy-5-(4-methyl-1H-imidazol-1-yl)pyridin-2-yl)-5,6-dihydro-4H-1,2,4-oxadiazine] | 1100 nM |  |
| COc1nc(C2=NOCC(c3cc4ccc(C5CC5)cc4o3)N2)ccc1-n1cnc(C)c1 (single isomer, unassigned; (+)) [Example 236B, (+)-5-(6-cyclopropylbenzofuran-2-yl)-3-(6-methoxy-5-(4-methyl-1H-imidazol-1-yl)pyridin-2-yl)-5,6-dihydro-4H-1,2,4-oxadiazine] | 9.2 nM |  |
| COc1nc(C2=NOCC(c3nc4ccccc4o3)N2)ccc1-n1cnc(C)c1 (single isomer, unassigned; (+)) [Example 203B, (+)-2-(3-(6-methoxy-5-(4-methyl-1H-imidazol-1-yl)pyridin-2-yl)-5,6-dihydro-4H-1,2,4-oxadiazin-5-yl)benzo[d]oxazole] | 256 nM |  |
| COc1nc(C2=NOCC(c3ccc4ncsc4c3)N2)ccc1-n1cnc(C)c1 (single isomer, unassigned; (-)) [Example 183A, (−)-5-(benzo [d]thiazol-6-yl)-3-(6-methoxy-5-(4-methyl-1H-imidazol-1-yl)pyridin-2-yl)-5,6-dihydro-4H-1,2,4-oxadiazine] | 1760 nM |  |
| COc1nc(C2=NOCC(c3ccccc3Cl)N2)ccc1-n1cnc(C)c1 (single isomer, unassigned) [Example 136A, 5-(2-chlorophenyl)-3-(6-methoxy-5-(4-methyl-1H-imidazol-1-yl)pyridin-2-yl)-5,6-dihydro-4H-1,2,4-oxadiazine] | 143 nM |  |
| COc1nc(C2=NOCC(c3cn(C)c4ccccc34)N2C)ccc1-n1cnc(C)c1 (single isomer, unassigned; (+)) [Example 200A, (+)-3-(6-methoxy-5-(4-methyl-1H-imidazol-1-yl)pyridin-2-yl)-4-methyl-5-(1-methyl-1H-indol-3-yl)-5,6-dihydro-4H-1,2,4-oxadiazine] | 154 nM |  |
| COc1nc(C2=NOCC(c3ccc(S(C)(=O)=O)cc3)N2)ccc1-n1cnc(C)c1 (single isomer, unassigned; (-)) [Example 217A, (−)-3-(6-methoxy-5-(4-methyl-1H-imidazol-1-yl)pyridin-2-yl)-5-(4-(methylsulfonyl)phenyl)-5,6-dihydro-4H-1,2,4-oxadiazine] |  | > 3000 nM |
| COc1nc(C2=NOCC(c3nn(C)c4ccccc34)N2)ccc1-n1cnc(C)c1 (single isomer, unassigned; (+)) [Example 124B, (+)-3-(6-methoxy-5-(4-methyl-1H-imidazol-1-yl)pyridin-2-yl)-5-(1-methyl-1H-indazol-3-yl)-5,6-dihydro-4H-1,2,4-oxadiazine] | 54.8 nM |  |
| COc1nc(C2=NOCC(c3oc(C)nc3C)N2)ccc1-n1cnc(C)c1 (single isomer, unassigned; (-)) [Example 161A, (−)-5-(2,4-dimethyloxazol-5-yl)-3-(6-methoxy-5-(4-methyl-1H-imidazol-1-yl)pyridin-2-yl)-5,6-dihydro-4H-1,2,4-oxadiazine] |  | > 3000 nM |
| COc1nc(C2=NOCC(c3oc4ccc(F)cc4c3C)N2)ccc1-n1cnc(C)c1 (single isomer, unassigned; (+)) [Example 101B, (+)-5-(5-fluoro-3-methylbenzofuran-2-yl)-3-(6-methoxy-5-(4-methyl-1H-imidazol-1-yl)pyridin-2-yl)-5,6-dihydro-4H-1,2,4-oxadiazine] | 10.8 nM |  |
| COc1nc(C2=NOCC(c3cc4cc(C5CC5)ccc4o3)N2)ccc1-n1cnc(C)c1 (single isomer, unassigned; (-)) [Example 234A, (−)-5-(5-cyclopropylbenzofuran-2-yl)-3-(6-methoxy-5-(4-methyl-1H-imidazol-1-yl)pyridin-2-yl)-5,6-dihydro-4H-1,2,4-oxadiazine] | 425 nM |  |
| COc1nc(C2=NOCC(c3ccc4scnc4c3)N2)ccc1-n1cnc(C)c1 (single isomer, unassigned; (+)) [Example 240B, (+)-5-(benzo[d]thiazol-5-yl)-3-(6-methoxy-5-(4-methyl-1H-imidazol-1-yl)pyridin-2-yl)-5,6-dihydro-4H-1,2,4-oxadiazine] | 109 nM |  |
| COc1nc(C2=NOCC(c3cccc(C4CC4)c3)N2)ccc1-n1cnc(C)c1 (single isomer, unassigned; (+)) [Example 127B, (+)-5-(3-cyclopropylphenyl)-3-(6-methoxy-5-(4-methyl-1H-imidazol-1-yl)pyridin-2-yl)-5,6-dihydro-4H-1,2,4-oxadiazine] | 23 nM |  |
| COc1nc(C2=NOCC(c3ccccn3)N2)ccc1-n1cnc(C)c1 (single isomer, unassigned; (-)) [Example 168B, (−)-3-(6-methoxy-5-(4-methyl-1H-imidazol-1-yl)pyridin-2-yl)-5-(pyridin-2-yl)-5,6-dihydro-4H-1,2,4-oxadiazine] | > 3000 nM |  |
| COc1nc(C2=NOCC(c3cn(C)c4ncc(C(F)(F)F)cc34)N2)ccc1-n1cnc(C)c1 (single isomer, unassigned; (-)) [Example 206A, (−)-3-(6-methoxy-5-(4-methyl-1H-imidazol-1-yl)pyridin-2-yl)-5-(1-methyl-5-(trifluoromethyl)-1H-pyrrolo [2,3-b]pyridin-3-yl)-5,6-dihydro-4H-1,2,4-oxadiazine] | 800 nM |  |

— US9802927B2, “Oxadiazine compounds and methods of use thereof” (Denali Therapeutics, Inc., priority 2015, dated 2017)
